Measurements from PubChem BioAssay AID1259411 (Chemical Carcinogenesis Research Information System (CCRIS), 2018).
Activity calls are given as the source filed them. How the calls were made is not given here.

Test system: rodent carcinogenicity bioassays, tumor incidence
Assay: CCRIS carcinogenicity studies
Summary of the method: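 Archive of carcinogenicity, mutagenicity, tumor promotion and tumor inhibition results drawn from journals, NCI reports and other sources, expert-reviewed; covers 1985-2011 and is no longer updated.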

CCCC(CCC)C(=O)O
carcinogen call (Species: RAT, Strain/Sex: WISTAR/FEMALE, Route: ORAL, Dose: 0, 125, 250, 500 MG/KG BW IN DIET FOR 104 WK (STUDY DURATION: 104 WK), Dose: 0, 125, 250, 500 MG/KG BW IN DIET FOR 104 WK (STUDY DURATION: 104 WK), Tumor Site: Type of Lesion: UTERUS: ADENOCARCINOMA): active; positive
carcinogen call (Species: RAT, Strain/Sex: WISTAR/MALE, Route: ORAL, Dose: 0, 125, 250, 500 MG/KG BW IN DIET FOR 104 WK (STUDY DURATION: 104 WK), Dose: 0, 125, 250, 500 MG/KG BW IN DIET FOR 104 WK (STUDY DURATION: 104 WK)): inactive; negative

COCC(=O)N(c1c(C)cccc1C)C(C)C(=O)OC (centres undefined)
carcinogen call (Species: Mouse, Strain/Sex: ICI Alderly Park (Swiss strain origin)/Female (60/Group), Route: Oral, Dose: 0, 50, 250, 1250 ppm of 93.8-95.2% metalaxyl in diet for 104 wk, study duration 104 wk, Dose: 0, 50, 250, 1250 ppm of 93.8-95.2% metalaxyl in diet for 104 wk, study duration 104 wk): inactive; negative
carcinogen call (Species: Mouse, Strain/Sex: ICI Alderly Park (Swiss strain origin)/Male (60/Group), Route: Oral, Dose: 0, 50, 250, 1250 ppm of 93.8-95.2% metalaxyl in diet for 104 wk, study duration 104 wk, Dose: 0, 50, 250, 1250 ppm of 93.8-95.2% metalaxyl in diet for 104 wk, study duration 104 wk): inactive; negative
carcinogen call (Species: Rat, Strain/Sex: CD (Sprague-Dawley derived)/Female (70/Group), Route: Oral, Dose: 0, 50, 250, 1250 ppm of 93% metalaxyl in diet for 105 wk, study duration 105 wk, Dose: 0, 50, 250, 1250 ppm of 93% metalaxyl in diet for 105 wk, study duration 105 wk, Tumor Site: Type of Lesion: Thyroid: follicular cell adenoma): active; positive
carcinogen call (Species: Rat, Strain/Sex: CD (Sprague-Dawley derived)/Male (70/Group), Route: Oral, Dose: 0, 50, 250, 1250 ppm of 93% metalaxyl in diet for 105 wk, study duration 105 wk, Dose: 0, 50, 250, 1250 ppm of 93% metalaxyl in diet for 105 wk, study duration 105 wk): inactive; negative

C=CN(CC)N=O
carcinogen call (Species: HAMSTER, Strain/Sex: SYRIAN/FEMALE, Route: SUBCUTANEOUS, Dose: 0.63-5 MG/KG IN OLIVE OIL 1/WK FOR LIFE, Tumor Site: Type of Lesion: NASAL CAVITY: PAPILLOMA, EPIDERMOID CARCINOMA, ADENOCARCINOMA, LARYNX: PAPILLOMA, EPIDERMOID CARCINOMA, TRACHEA: PAPILLO, Tumor Site: Type of Lesion: NASAL CAVITY: PAPILLOMA, EPIDERMOID CARCINOMA, ADENOCARCINOMA, LARYNX: PAPILLOMA, EPIDERMOID CARCINOMA, TRACHEA: PAPILLO): active; positive
carcinogen call (Species: HAMSTER, Strain/Sex: SYRIAN/MALE, Route: SUBCUTANEOUS, Dose: 0.63-5 MG/KG IN OLIVE OIL 1/WK FOR LIFE, Tumor Site: Type of Lesion: NASAL CAVITY: PAPILLOMA, EPIDERMOID CARCINOMA, ADENOCARCINOMA, LARYNX: PAPILLOMA, EPIDERMOID CARCINOMA, TRACHEA: PAPILLO, Tumor Site: Type of Lesion: NASAL CAVITY: PAPILLOMA, EPIDERMOID CARCINOMA, ADENOCARCINOMA, LARYNX: PAPILLOMA, EPIDERMOID CARCINOMA, TRACHEA: PAPILLO): active; positive
carcinogen call (Species: RAT, Route: INTRAVENOUS, Dose: 10.0 MG/KG 1/WK(MEAN TOTAL DOSE 0.25 G/KG), Tumor Site: Type of Lesion: ESOPHAGUS): active; positive
carcinogen call (Species: RAT, Route: ORAL, Dose: 1.30, 2.50 MG/KG 7/WK (MEAN TOTAL DOSE 0.23; 0.42 G/KG), Dose: 1.30, 2.50 MG/KG 7/WK (MEAN TOTAL DOSE 0.23; 0.42 G/KG), Tumor Site: Type of Lesion: ESOPHAGUS): active; positive

Clc1cc2c(cc1Cl)Oc1cc(Cl)c(Cl)cc1O2
carcinogen call (Species: MOUSE, Strain/Sex: B6C3/FEMALE, Route: GAVAGE, Dose: 0, 2.5, 5 UG/KG IN CORN OIL 1/WK FOR 52 WK (STUDY DURATION: 110 WK), Dose: 0, 2.5, 5 UG/KG IN CORN OIL 1/WK FOR 52 WK (STUDY DURATION: 110 WK), Tumor Site: Type of Lesion: LIVER: HEPATOCELLULAR ADENOMA, HEPTOCELLULAR CARCINOMA): active; positive
carcinogen call (Species: MOUSE, Strain/Sex: B6C3/FEMALE, Route: INTRAPERITONEAL, Dose: 0, 1, 30, 60, UG/KG 1/WK FOR 5 WK BEGINNING AT 10 D OF AGE (STUDY DURATION: 78 WK), Dose: 0, 1, 30, 60, UG/KG 1/WK FOR 5 WK BEGINNING AT 10 D OF AGE (STUDY DURATION: 78 WK), Tumor Site: Type of Lesion: LIVER: HEPATOCELLULAR ADENOMA, THYMUS: LYMPHOMA): active; positive
carcinogen call (Species: MOUSE, Strain/Sex: B6C3/MALE, Route: GAVAGE, Dose: 0, 2.5, 5 UG/KG IN CORN OIL 1/WK FOR 52 WK (STUDY DURATION: 110 WK), Dose: 0, 2.5, 5 UG/KG IN CORN OIL 1/WK FOR 52 WK (STUDY DURATION: 110 WK), Tumor Site: Type of Lesion: LIVER: HEPATOCELLULAR CARCINOMA): active; positive
carcinogen call (Species: MOUSE, Strain/Sex: B6C3/MALE, Route: INTRAPERITONEAL, Dose: 0, 1, 30, 60, UG/KG 1/WK FOR 5 WK BEGINNING AT 10 D OF AGE (STUDY DURATION: 78 WK), Dose: 0, 1, 30, 60, UG/KG 1/WK FOR 5 WK BEGINNING AT 10 D OF AGE (STUDY DURATION: 78 WK), Tumor Site: Type of Lesion: LIVER: HEPATOCELLULAR ADENOMA, HEPTOCELLULAR CARCINOMA, THYMUS: LYMPHOMA): active; positive
carcinogen call (Species: MOUSE, Strain/Sex: B6C3F1/FEMALE, Route: GAVAGE, Dose: 0, 0.04, 0.2, 2.0 UG/KG SUSPENDED IN 9:1 CORN OIL-ACETONE, Dose: 0, 0.04, 0.2, 2.0 UG/KG SUSPENDED IN 9:1 CORN OIL-ACETONE, Tumor Site: Type of Lesion: LIVER: HEPATOCELLULAR CARCINOMA, THYROID GLAND: FOLLICULAR CELL ADENOMA): active; positive
carcinogen call (Species: MOUSE, Strain/Sex: B6C3F1/MALE, Route: GAVAGE, Dose: 0, 0.01, 0.05, 0.5 UG/KG SUSPENDED IN 9:1 CORN OIL-ACETONE, Dose: 0, 0.01, 0.05, 0.5 UG/KG SUSPENDED IN 9:1 CORN OIL-ACETONE, Tumor Site: Type of Lesion: LIVER: HEPATOCELLULAR CARCINOMA): active; positive
carcinogen call (Species: MOUSE, Strain/Sex: SWISS/FEMALE, Route: DERMAL, Dose: 0.005 UG IN ACETONE SUSPENSION 3/WK FOR 99 OR 104 WK (STUDY DURATION: 99 OR 104 WK), Tumor Site: Type of Lesion: INTEGUMENTARY SYSTEM (SUBCUTANEOUS TISSUE): FIBROSARCOMA): active; positive
carcinogen call (Species: MOUSE, Strain/Sex: SWISS/MALE, Route: DERMAL, Dose: 0.001 UG IN ACETONE SUSPENSION 3/WK FOR 99 OR 104 WK (STUDY DURATION: 99 OR 104 WK), Tumor Site: Type of Lesion: INTEGUMENTARY SYSTEM (SUBCUTANEOUS TISSUE): FIBROSARCOMA): equivocal
carcinogen call (Species: RAT, Strain/Sex: OSBORNE-MENDEL/FEMALE, Route: GAVAGE, Dose: 0, 0.01, 0.05, 0.5 UG/KG SUSPENDED IN 9:1 CORN OIL-ACETONE, Dose: 0, 0.01, 0.05, 0.5 UG/KG SUSPENDED IN 9:1 CORN OIL-ACETONE, Tumor Site: Type of Lesion: LIVER: NEOPLASTIC NODULE): active; positive
carcinogen call (Species: RAT, Strain/Sex: OSBORNE-MENDEL/MALE, Route: GAVAGE, Dose: 0, 0.01, 0.05, 0.5 UG/KG SUSPENDED IN 9:1 CORN OIL-ACETONE, Dose: 0, 0.01, 0.05, 0.5 UG/KG SUSPENDED IN 9:1 CORN OIL-ACETONE, Tumor Site: Type of Lesion: THYROID GLAND: FOLLICULAR CELL ADENOMA): active; positive
carcinogen call (Species: RAT, Strain/Sex: SPRAGUE-DAWLEY/FEMALE, Route: ORAL, Dose: 0, 3, 10, 22, 46, 100 NG/KG/D (STUDY DURATION: 2 YRS), Dose: 0, 3, 10, 22, 46, 100 NG/KG/D (STUDY DURATION: 2 YRS), Tumor Site: Type of Lesion: ORAL MUCOSA: SQUAMOUS CELL CARCINOMA): active; positive; highest dose only
carcinogen call (Species: Rat, Strain/Sex: Harlan Sprague-Dawley/Female (50 dosed animals), Route: Gavage, Dose: 0, 100 ng/kg (Test material solvent: corn oil: acetone (99:1))): inactive; negative
carcinogen call (Species: Rat, Strain/Sex: Harlan Sprague-Dawley/Female, Route: Gavage, Dose: 0, 3, 10, 22, 46, 100 ng/kg (Test material solvent: corn oil: acetone (99:1)), Dose: 0, 3, 10, 22, 46, 100 ng/kg (Test material solvent: corn oil: acetone (99:1)), Tumor Site: Type of Lesion: Liver: Hepatocellular adenoma (0/53, 0/54, 0/53, 1/53, 13/53, 2/50), Cholangiocarcinoma (0/53, 0/54, 0/53, 1/53, 4/53, 2): active; positive; findings in pancreas and in liver for hepatocholangioma and cholangiom
carcinogen call (Species: Rat, Strain/Sex: Spartan Sprague Dawley/Female (50/Experimental Group; 86 Controls), Route: Oral, Dose: 0, 1, 10, 100 ng/kg in food, 7 days a wk for 2 yr, Dose: 0, 1, 10, 100 ng/kg in food, 7 days a wk for 2 yr): active; positive
